Reference: patent US8222248B2, “Organic compounds” (Novartis AG, priority 2006, dated 2012)

Target: T1, human DGAT1 (Homo sapiens, UniProt O75907)
T1 construct: made in house; host or cells: Sf9 cells (membrane preparation)
T1 sequence (O75907 1-488): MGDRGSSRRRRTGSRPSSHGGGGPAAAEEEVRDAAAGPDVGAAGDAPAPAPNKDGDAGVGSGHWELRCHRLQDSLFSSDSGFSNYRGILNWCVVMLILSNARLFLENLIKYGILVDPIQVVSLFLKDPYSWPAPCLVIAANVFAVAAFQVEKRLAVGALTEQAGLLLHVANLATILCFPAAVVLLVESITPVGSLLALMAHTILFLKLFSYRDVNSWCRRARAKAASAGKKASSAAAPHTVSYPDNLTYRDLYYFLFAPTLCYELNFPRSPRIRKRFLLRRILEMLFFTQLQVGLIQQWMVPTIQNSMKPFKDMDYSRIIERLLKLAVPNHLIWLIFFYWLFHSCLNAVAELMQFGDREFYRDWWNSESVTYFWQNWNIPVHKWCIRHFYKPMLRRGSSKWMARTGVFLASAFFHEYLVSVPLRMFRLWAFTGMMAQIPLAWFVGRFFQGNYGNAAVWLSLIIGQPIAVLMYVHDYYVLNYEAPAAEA
Assay: DGAT1 enzyme inhibition assay (membrane preparation, LC/MS/MS readout)
Assay type: biochemical
Conditions: DGAT1 inhibitory activity, table at end of examples
Procedure: The enzyme preparation used in this assay is a membrane preparation from Sf9 cells overexpressing human (His)6DGAT1. During all steps samples were chilled to 4° C. Sf9 cells expressing human (His)6DGAT1 were thawed at RT and re-suspended at a 10:1 ratio (mL buffer/g of cells) in 50 mM HEPES, 1× Complete Protease Inhibitor, pH 7.5.
The re-suspended pellet was homogenized for 1 min using a Brinkman PT 10/35 homogenizer with a 20 mm generator. Cells were lysed using Avestin Emulsiflex (chilled to 4° C.) at 10000-15000 psi. Lysate was centrifuged at 100,000×g for 1 h at 4° C. Supernatant was removed and pellets were re-suspended in 50 mM HEPES, 1× Complete Protease Inhibitor, pH 7.5 at ⅙ the volume of supernatant. Re-suspended pellets were pooled and homogenized with 10 strokes of a Glas-Col motor driven teflon pestle on setting 70. The protein concentration of the membrane preparation was quantified using BCA protein assay with 1% SDS. The membrane preparation was aliquoted, frozen on dry ice, and stored at −80° C.
For 50 mL, 25 mL of 0.2 M HEPES stock buffer, 0.5 mL of 1 M MgCl2 ([…]), and 24.5 mL of milli-Q H2O are added to the 55 mL Wheaton Potter-Elvehjem homogenizer. Enzyme preparation (0.1 mL) is added to buffer and the mixture is homogenized with 5 strokes on ice using the Glas-Col variable speed homogenizer system on setting 70.
For 50 mL, 0.5 mL 10 mM diolein is added to 9.5 mL of EtOH in a 50 mL Falcon screw cap conical centrifuge tube. Five mL of 10 mM sodium acetate pH 4.5 is added followed by 0.5 mL of 10 mM oleoyl-CoA. Finally, the remaining 4.5 mL of 10 mM sodium acetate pH 4.5 is added followed by 30 mL of milli-Q H20. The solution should be gently agitated by hand to induce mixing. The final concentrations of EtOH and sodium acetate are 20% and 2 mM, respectively.
Dry compounds are dissolved in the appropriate volume of DMSO to a final concentration of 10 mM. A 10-point, 3-fold dose response is used to evaluate compound potency. All dilutions are performed in DMSO in a Greiner 384-well microplate.
1. 2 μL of compound in DMSO is added to the appropriate wells. 2 μL of DMSO is added to 100% activity and 100% inhibition controls.
2. 25 μL of enzyme mix is added to all wells and plate(s) are incubated for 10 min at RT.
3. 10 μL of 20% acetic acid quench is added to 100% inhibition control wells. Plate(s) are vortexed using Troemner multi-tube vortexer (setting 7 for 10 sec).
4. 25 μL of substrate mix is added to all wells. Plate(s) are vortexed using Troemner multi-tube vortexer (setting 7 for 10 sec). Plate(s) are incubated for 30 min at RT.
5. 10 μL of 20% acetic acid quench is added to all wells. Plate(s) are vortexed using Troemner multi-tube vortexer (setting 7 for 10 sec).
6. 50 μL of 1-butanol w/glyceryl tripalmitoleate internal standard is added to all wells.
7. Plate(s) are sealed with super pierce strong plate sealer using the thermo-sealer.
8. Plate(s) are vortexed using Troemner multi-tube vortexer (setting 10 for 5 min).
9. Plate(s) are centrifuged at 162×g (1000 rpm for GH-3.8 rotor) for 5 min using Beckman GS-6R tabletop centrifuge.
Samples were analyzed by LC/MS/MS using a Waters 1525 μLC and Quattro Micro API MS. Where indicated, tripalmitolein was used as an internal standard to control for instrument variation.
Data is converted to % inhibition prior to curve fitting using the following equation: […]

Row | IC50 [µM] | Structure (SMILES)
1 | 0.23 | O=C(Nc1cccc(Cl)c1)c1ccc2nc(-c3cccc(Cl)c3Cl)[nH]c2c1 [Example 1-124, 2-(2,3-Dichloro-phenyl)-3H-benzoimidazole-5-carboxylic acid (3-chloro-phenyl)-amide]
2 | 6.8 | Cc1ccccc1CNC(=O)c1ccc2nc(-c3c(Cl)cccc3Cl)oc2c1 [Example 4-15, 2-(2,6-Dichloro-phenyl)-benzooxazole-6-carboxylic acid 2-methyl-benzylamide]
3 | 12 | COC(=O)c1ccc(-c2nc3ccc(C(=O)Nc4cccc(Cl)c4)cc3[nH]2)cc1 [Example 1-136, 4-[6-(3-Chloro-phenylcarbamoyl)-1H-benzoimidazol-2-yl]-benzoic acid methyl ester]
4 | 6.9 | Cc1cccc(C(=O)Nc2ccc3nc(-c4c(Cl)cccc4Cl)[nH]c3c2)c1 [Example 1-11, N-[2-(2,6-Dichloro-phenyl)-3H-benzoimidazol-5-yl]-3-methyl-benzamide]

Same assay, conditions: inhibitory activity to human DGAT1, Table 1, values given as ranges

Row | Structure (SMILES) | IC50 [µM]
5 | CCOc1cccc(CCNC(=O)c2ccc3nc(-c4c(Cl)cccc4Cl)[nH]c3c2)c1 [Example 1-82, 2-(2,6-Dichloro-phenyl)-3H-benzoimidazole-5-carboxylic acid [2-(3-ethoxy-phenyl)-ethyl]-amide] | < 1
6 | CC(=O)Nc1ccc2nc(-c3c(Cl)cccc3Cl)[nH]c2c1 [Example 1-6] | 1 to 30

The remaining lines, values ahead:

Row | IC50 [µM] | Structure (SMILES)
7 | 30 to 100 | COc1ccccc1CCNC(=O)c1ccc2nc(-c3c(Cl)cccc3Cl)oc2c1 [Example 4-11, 2-(2,6-Dichloro-phenyl)-benzooxazole-6-carboxylic acid [2-(2-methoxy-phenyl)-ethyl]-amide]
8 | 1 to 30 | Cc1nc2cc(NC(=O)c3ccc4[nH]c(-c5c(Cl)cccc5Cl)cc4c3)ccc2s1 [Example 3-1, 2-(2,6-dichloro-phenyl)-1H-indole-5-carboxylic acid (2-methyl-benzothiazol-5-yl)-amide]

Tested on: not given
Assay: not given
Conditions: not given

Row | melting point [°C] | Structure (SMILES)
9 | 223 to 225 | Cc1ccc(NC(=O)c2ccc3c(c2)C(=O)N(c2c(C)cccc2C)C3=O)cc1C [Example 7-1, 2-(2,6-Dimethylphenyl)-1,3-dioxo-2,3-dihydro-1H-isoindole-5-carboxylic acid (3,4-dimethylphenyl)-amide]
10 | 207 to 209 | Cc1ccc(NC(=O)c2ccc3oc(-c4c(C)cc(OCC(=O)N(C)C)cc4C)nc3c2)cc1C [Example 4-23, 2-(4-Dimethylcarbamoylmethoxy-2,6-dimethylphenyl)-benzooxazole-5-carboxylic acid (3,4-dimethylphenyl)-amide]
11 | 238 to 240 | Cc1ccc(NC(=O)c2ccc3c(c2)C(=O)N(c2c(Cl)cccc2Cl)C3=O)cc1C [Example 7-2, 2-(2,6-Dichlorophenyl)-1,3-dioxo-2,3-dihydro-1H-isoindole-5-carboxylic acid (3,4-dimethylphenyl)-amide]
